Assay results taken from publication PMC9343080, “Distribution- and Metabolism-Based Drug Discovery: A Potassium-Competitive Acid Blocker as a Proof of Concept” (Research, 2022).
Counter-ions that a name gives are not always drawn. Like-named read-outs stand apart in the source and are kept apart here.

Key:
[1] = parameters: method as in PMID 27414183; details: human hepatocytes; ref [42]; cited from earlier work
[2] = molecular target: T1, rabbit gastric H+, K+-ATPase (Oryctolagus cuniculus, UniProt P27112); assay: In vitro enzymatic activity assay (inorganic phosphate from ATP hydrolysis); type: biochemical
T1 construct: using rabbit gastric H^+, K^+-ATPase; from tissue; host or cells: rabbit stomach (gastric preparation; the method of preparation is not described)
Experimental: The in vitro enzymatic activity was calculated by measuring the inorganic phosphate produced by the hydrolysis of ATP using rabbit gastric H^+, K^+-ATPase. 0.25 μg enzyme was preincubated at 37°C for 30 min in Tris-HCl buffer (2.0 mL, 50 mM, pH 6.5) containing 5 mM MgCl2, 10 μM valinomycin, 0 or 20 mM KCl, and different concentrations of SH-337 and vonoprazan. The reaction was initiated by adding 5 μL of 5 mM ATP 2Na, and the preparation was incubated for 30 min at 37°C and halted by the addition of 100 μL of malachite green reagent (0.12% malachite green, 7.5% ammonium molybdate, and 11% tween 20 were mixed in a volume ratio of 100 : 25 : 2). H^+, K^+-ATPase activity was calculated after subtracting the enzyme activity in the absence of KCl.

[3] = Tissue distribution of SH-337 in rats (LC-MS/MS); type: in vivo, rat
Experimental: 15 SPF male SD rats were randomly divided into 5 groups, three per group. Fasting was for 4 hours. Plasma, heart, liver, and stomach were obtained 0.25, 1, 2, 4, and 24 hours after oral administration of SH-337 (0.4 mg/mL in water) at a dose of 4 mg/kg. At designated time points, rats were anesthetized with ether, and the blood samples were collected via the abdominal aorta. The blood was immediately cooled under ice-chilled conditions and centrifuged at approximately 1500 × g at 4°C for 10 minutes to obtain the plasma. For plasma: 20 μL Std samples in duplicate, QC samples in duplicate, and rat plasma samples were mixed with 60 μL ACN containing IS (200 ng/mL of tolbutamide, 50 ng/mL of propranolol, and 500 ng/mL of Dic) in EP tubes. After the mixture was vortexed for 1 min and then centrifuged for 10 min (13000 rpm, 4°C), transfer 50 μL supernatant to a 96-well plate with 150 μL pure water, shake for 10 min, and finally analyze by LC-MS/MS. For heart and liver: tissue samples were added with 3-folds (w/v) saline in terms of the weight of samples and then homogenated. 20 μL Std samples in duplicate, QC samples in duplicate, and rat heart and liver samples were mixed with 60 μL ACN containing IS (200 ng/mL of tolbutamide, 50 ng/mL of propranolol, and 500 ng/mL of Dic) in EP tubes. After the mixture was vortexed for 1 min and then centrifuged for 10 min (13000 rpm, 4°C), transfer 50 μL supernatant to a 96-well plate with 150 μL pure water, shake for 10 min, and finally analyze by LC-MS/MS. For stomach: tissue samples were added with 3-folds (w/v) saline in terms of the weight of samples and then homogenated. 20 μL Std samples in duplicate, QC samples in duplicate, and rat stomach samples were mixed with 60 μL ACN containing IS (200 ng/mL of tolbutamide, 50 ng/mL of propranolol, and 500 ng/mL of Dic) in EP tubes. After the mixture was vortexed for 1 min and then centrifuged for 10 min (13000 rpm, 4°C), transfer 50 μL supernatant to a 96-well plate with 150 μL pure water, shake for 10 min, and finally analyze by LC-MS/MS.

[4] = Metabolite identification and profiling in rat liver microsomes; type: in vitro ADME
Experimental: (§1) Liver microsomes (1 mg protein/mL) were suspended in phosphate buffer (50 mM, pH 7.4) containing MgCl2 (6 mM). […] The reactions were initiated at 37°C by the addition of 1 mM NADPH and terminated at 30 min or 60 min (30 min for rat; 60 min for human). The samples were precipitated with acetonitrile at 1 : 2 and further centrifuged; the supernatants were dried with a stream of N2 gas. The residues were reconstituted with 300 μL of 10% acetonitrile/H2O (0.1% TFA) and analyzed by LC-MS/MS. The assays were pursued under the conditions provided in Supplementary Tables S4, S6, S7, and S8.

[5] = Metabolite identification and profiling in human liver microsomes; type: in vitro ADME
Experimental: as §1

[6] = Metabolite identification and profiling in rat hepatocytes; type: in vitro ADME; details: for Relative peak area, RHeps: SH-337, rat hepatocytes, 60 min incubation
Experimental: (§2) SH-337 was incubated with rat or human hepatocytes at a concentration of 1.0 × 10^6 cells/mL for 60 min or 120 min (rat 60 min, human 120 min) at 37°C in a CO2 incubator. The samples were precipitated with acetonitrile at 1 : 2 and further centrifuged; the supernatants were dried with a stream of N2 gas. The residues were reconstituted with 300 μL of 10% acetonitrile/H2O (0.1% TFA) and analyzed by LC-MS/MS. The assays were pursued under the conditions provided in Supplementary Tables S5–S8.

[7] = Metabolite identification and profiling in human hepatocytes; type: in vitro ADME
Experimental: as §2

[8] = Metabolite profiling, range over rat and human liver microsomes; type: in vitro ADME; details: rat and human microsomes after 30 and 60 min incubation
Experimental: as §1

[9] = Metabolite profiling, range over rat and human hepatocytes; type: in vitro ADME; details: rat and human hepatocytes after 60 and 120 min incubation
Experimental: as §2

[10] = cited from earlier work
[11] = log D7.4 measurement (1-octanol/PBS pH 7.4); type: physicochemical; details: 1-octanol/PBS, pH 7.4, pH 7.4
Experimental: (§3) Procedure for pKa and log D7.4 measurements. The pKa was determined using pH-metric Method from DMSO Stock Solution. Procedure for Log D determinations: 15 µL of stock solutions of test compounds and control compound was placed in order into their proper 96-well rack. 500 µL of PBS saturated 1-octanol was added into each vial of the cap-less Log D plate followed by the addition of 500 µL of 1-octanol saturated PBS (pH 7.4). One stir stick was added to each vial and a molded PTFE/Silicone plug was used to seal each vial. Then the Log D plate was transferred to the Eppendorf Thermomixer Comfort plate shaker and shaken at 25°C at 1,100 RPM for 1 hour. After completion of 1 hour, plugs were removed and the stir sticks were removed using a big magnet. The samples were then centrifuged at 25°C at 20,000 g for 20 minutes to separate the phases, and pipette and syringe were used to remove the upper (1-octanol) and lower (buffer) phases to the empty tubes, respectively. Aliquots of 5 µL were taken from upper phases followed by addition of 495 µL of a mixture of H2O and acetonitrile (1:1 in v/v). Vortex for 1 minute, and then aliquots of 50 µL were taken from the diluent followed by addition of 450 µL of a mixture of H2O and acetonitrile (1:1 in v/v). And aliquots of 50 µL were taken from lower phases followed by addition of 450 µL of a mixture of H2O and acetonitrile (1:1 in v/v). 200 μL of diluent was transferred to a new 96-well plate for LC-MS/MS analysis. The dilution factor was changed according to the Log D value and the LC-MS signal response. The concentrations of test compound and control compound in 1-octanol/buffer solution were evaluated by LC-MS/MS. The Log D values of the test compounds and control compound were calculated as follows: […]

[12] = pKa measurement (pH-metric method); type: physicochemical; details: read-out: pKa
Experimental: as §3

[13] = rats, i.g. 2 mg/kg vonoprazan, ref [43]

T1 sequence (P27112 whole entry): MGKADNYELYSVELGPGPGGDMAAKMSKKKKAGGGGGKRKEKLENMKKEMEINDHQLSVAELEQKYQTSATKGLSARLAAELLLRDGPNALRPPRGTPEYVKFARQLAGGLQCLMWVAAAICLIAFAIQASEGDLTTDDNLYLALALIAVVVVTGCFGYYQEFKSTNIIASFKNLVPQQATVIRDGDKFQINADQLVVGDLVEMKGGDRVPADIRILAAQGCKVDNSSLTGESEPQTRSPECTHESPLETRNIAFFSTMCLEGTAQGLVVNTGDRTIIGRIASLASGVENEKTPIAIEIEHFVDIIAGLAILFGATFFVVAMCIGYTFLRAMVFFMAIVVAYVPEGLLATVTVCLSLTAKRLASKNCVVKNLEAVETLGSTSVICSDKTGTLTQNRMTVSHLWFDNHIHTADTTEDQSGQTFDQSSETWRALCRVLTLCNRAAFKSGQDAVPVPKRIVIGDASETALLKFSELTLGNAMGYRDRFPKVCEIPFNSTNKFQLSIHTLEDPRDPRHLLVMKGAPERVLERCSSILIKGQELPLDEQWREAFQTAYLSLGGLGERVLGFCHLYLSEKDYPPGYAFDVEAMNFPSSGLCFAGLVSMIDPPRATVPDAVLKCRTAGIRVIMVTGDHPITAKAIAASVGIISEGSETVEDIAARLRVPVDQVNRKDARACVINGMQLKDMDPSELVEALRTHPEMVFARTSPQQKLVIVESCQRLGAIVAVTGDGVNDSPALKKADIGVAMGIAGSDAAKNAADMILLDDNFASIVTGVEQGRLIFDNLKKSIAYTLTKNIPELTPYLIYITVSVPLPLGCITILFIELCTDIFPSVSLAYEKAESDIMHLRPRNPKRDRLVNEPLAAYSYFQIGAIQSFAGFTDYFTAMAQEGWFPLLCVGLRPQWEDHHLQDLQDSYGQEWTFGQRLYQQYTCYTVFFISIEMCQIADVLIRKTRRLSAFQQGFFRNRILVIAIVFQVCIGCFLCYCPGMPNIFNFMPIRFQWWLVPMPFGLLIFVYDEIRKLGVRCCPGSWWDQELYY
T1 sequence (P18597 whole entry partner): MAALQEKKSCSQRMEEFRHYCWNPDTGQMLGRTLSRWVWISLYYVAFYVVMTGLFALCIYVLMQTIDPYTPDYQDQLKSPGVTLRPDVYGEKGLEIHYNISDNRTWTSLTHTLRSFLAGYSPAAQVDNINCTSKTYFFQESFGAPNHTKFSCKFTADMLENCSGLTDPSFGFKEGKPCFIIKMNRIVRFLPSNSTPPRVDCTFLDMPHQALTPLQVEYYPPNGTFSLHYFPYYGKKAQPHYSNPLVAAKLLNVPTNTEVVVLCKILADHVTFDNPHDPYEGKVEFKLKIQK

In the case of `C/[N+]([O-])=C/c1cc(-c2ccccc2F)n(S(=O)(=O)c2cccnc2)c1` [M-III], the “share in the in vitro metabolic profile of vonoprazan” value (“share” below) [1] is listed as 4.1%.

In the case of `O=C(O)c1c[nH]c(-c2ccccc2F)c1` [M-II], the “share” value [1] is given as 0.5%.

Work on `CNCc1cc(-c2ccc(O)cc2F)n(S(=O)(=O)c2cccnc2)c1.Cl.Cl` [M-IV, 3-fluoro-4-(4-((methylamino)methyl)-1-(pyridin-3-ylsulfonyl)-1H-pyrrol-2-yl)phenol dihydrochloride] yielded an IC50 [2] of 112 nM, an AUC0–24 in the liver ([3]; after oral dosing of 4.0 mg/kg SH-337) of 3410 ng·h/g and an AUC(0-t) ([3]; male, SD, rat, plasma, po, rats, i.g. 4 mg/kg SH-337, read-out: AUC0–24, Plasma) of 20.3 ng·h/mL. The “AUC0–24, Liver” value ([3]; rats, i.g. 4 mg/kg SH-337) was 3411.2 ng equiv. h/mL or g, the “AUC0–24, Stomach” value ([3]; rats, i.g. 4 mg/kg SH-337) was 94.1 ng equiv. h/mL or g and the “Percentage of all the metabolites except SH-337, RLMs” value ([4]; 30 min) was 90.2%. The “Relative peak area, RLMs” value ([4]; SH-337 10 µM, 30 min incubation) was 49%, the “Percentage of all the metabolites except SH-337, HLMs” value ([5]; 60 min) was 89.4% and the “Relative peak area, HLMs” value ([5]; SH-337 10 µM, 60 min incubation) was 27.8%. The “Relative peak area, RHeps” value [6] was 40.3%, the “Percentage of all the metabolites except SH-337, RHeps” value ([6]; rat hepatocytes, 60 min) was 56.1% and the “Relative peak area, Hheps” value ([7]; SH-337, human hepatocytes, 120 min incubation) was 11.6%. The “Percentage of all the metabolites except SH-337, Hheps” value ([7]; human hepatocytes, 120 min) was 49.4%, the “Percentage of all SH-337 metabolites in microsomes” value [8] was 89.4-90.2% and the “Percentage of all SH-337 metabolites in hepatocytes” value [9] was 49.4–56.1%.

In the case of `CN(Cc1cc(-c2ccc(O)cc2F)n(S(=O)(=O)c2cccnc2)c1)S(=O)(=O)O` [M-IV-Sul], the “share” value [1] is listed as 28%.

In the case of `O=C(O)c1cc(-c2ccccc2F)n(S(=O)(=O)c2cccnc2)c1` [M-I], the AUC0–24 in the liver ([10]; after oral dosing of 2.0 mg/kg vonoprazan, ref [43]) is given as 18400 ng·h/g, the “fold higher levels compared with those of vonoprazan” value ([10]; plasma, liver and kidney, rat model, ref [44]) is given as 4.3- to 58 fold and the “AUC0–24, Liver” value [10, 13] is given as 18404.0 ng equiv. h/mL or g. The “AUC0–24, Plasma” value [10, 13] was 4392.0 ng equiv. h/mL or g, the “AUC0–24, Stomach” value [10, 13] was 918.0 ng equiv. h/mL or g and the “share” value [1] was 18%.

For `NCc1cc(-c2ccccc2F)n(S(=O)(=O)c2cccnc2)c1` [N-demethylated vonoprazan], the “share” value [1] is given as 30%.

In the case of `CNCc1cc(-c2ccc(OCc3cnn(C)c3)cc2F)n(S(=O)(=O)c2cccnc2)c1` [S1, 1-(5-(2-fluoro-4-((1-methyl-1H-pyrazol-4-yl)methoxy)phenyl)-1-(pyridin-3-ylsulfonyl)-1H-pyrrol-3-yl)-N-methylmethanamine fumarate], the IC50 [2] is reported as 57.8 nM, the logD at 1 h [11] is reported as 0.5 and the pKa [12] is reported as 9.26.

`CNCc1cc(-c2ccc(OCC3COC3)cc2F)n(S(=O)(=O)c2cccnc2)c1` [S2, 1-(5-(2-fluoro-4-(oxetan-3-ylmethoxy)phenyl)-1-(pyridin-3-ylsulfonyl)-1H-pyrrol-3-yl)-N-methylmethanamine dihydrochloride] gave an IC50 [2] of 129 nM, a logD at 1 h [11] of 0.91 and a pKa [12] of 9.13.

In the case of `CN(Cc1cc(-c2ccc(OCC3CC3)cc2F)n(S(=O)(=O)c2cccnc2)c1)S(=O)(=O)O` [Sulfated SH-337], the “Relative peak area, RHeps” value [6] is reported as 0.1%, the “Percentage of all SH-337 metabolites in microsomes” value [8] is reported as 0% and the “Percentage of all SH-337 metabolites in hepatocytes” value [9] is reported as 0.13%.
